# Measured values as given in US20240269120A1, “Method for Treating an Autoimmune and Inflammatory Disease” (Cellestia Biotech AG, priority 2021, published 2024).
# Columns and labels:
# IL-17 = experiment: ELISA of supernatant from activated human PBMC cultures: IL-17; format: cell-based; settings: control 0%
# Description: (§1) Human PBMCs and mouse splenocyte in vitro stimulation and treatment: Human peripheral blood mononuclear cells (PBMCs) and mouse splenocytes from donors were stimulated in vitro with anti-CD3 and anti-CD28 antibodies. The stimulated cells were simultaneously treated with compounds for 96 hours. The T cells were profiled for different cell surface and intracellular markers and proliferation by flow cytometry.
# ELISA assay: Supernatant from activated human PBMC cultures described above was separated from cells at the end of culture time. Key cytokines (IL-6, IFN-γ, IL-17) were quantified using sandwich ELISA reagents set (Diaclone) following manufacturer's instruction manual.
# activated CD8 T cells = experiment: Cell proliferation assay (Cell trace violet), activated CD8 T cells; format: cell-based; settings: control 0%
# Description: Following PBMC injections, mice were treated with vehicle or 6-(4-tert-butylphenoxy)pyridin-3-amine or Ruxolitinib starting at day 0. Mice were monitored from 60-85 days for symptoms of GvHD and scored according to a standard clinical scoring system for GvHD (Naserian et al., 2018) (see table 1) and a cumulative clinical score was obtained by addition of clinical score for individual parameters. A maximum score of 6 is measured when reaching endpoint. Cell proliferation assay: The effect of compounds on T cell proliferation was quantified using Cell trace violet (CTV). PBMCs/splenocytes were incubated with CTV for 20 minutes at 37° C. Cells were washed twice with RPMI complete medium. CTV labelled cells were stimulated with anti-CD3 and anti-CD28 antibodies and treated with control or compounds and cultured at 37° C. for 96 hours. The cell division index was measured by flow cytometry.
# (§2) Flow cytometry analysis: Flow cytometry analysis was performed to quantify cell surface and intracellular markers expression and measure cell division index.
# IL-10 mRNA = experiment: Quantitative RT-PCR of splenocyte mRNA after in vivo dosing: IL-10; design: species or system mouse; settings: in vivo treated mice vs vehicle; p<0.05; FIG. 3
# Description: FIG. 3: In vivo 6-(4-tert-butylphenoxy)pyridin-3-amine dosing leads to an upregulation of anti-inflammatory cytokine IL-10 mRNA in mouse spleen. […] Each bar represents the mean±SD (N=3 replicates). (*) p<0.05
# In vivo treatment of mice and pharmacodynamic response: Mice experiments were performed in compliance with authorization to perform animal experiments (VD3323). Briefly, 6-8 weeks old wild type C57Bl6 mice were subcutaneously or intraperitoneally dosed with vehicle or compounds for different durations. Mice were sacrificed, spleens were harvested 24 hours post-last dosing. Splenocytes were analyzed for cell surface and intracellular markers expression using flow cytometry. RNA expression analyses were performed using quantitative real time PCR.
# Treg cells = experiment: Treg expansion in activated human PBMC cultures (anti-CD3/anti-CD28, flow cytometry); format: cell-based; settings: anti-CD3 and anti-CD28, 96 hours, control 0%
# Description: as §1, §2
# Viability staining: Cells were transferred into a 96 well conical bottom plate and washed with serum free PBS1×. Cells were incubated with Zombie NIR (Biolegend #423105)+FC block ([…]) for 20 minutes at 4° C. Cells were washed with staining medium (SM) (1×HBSS, 2.5 mM EDTA, 2% NBS
# Cell surface marker staining: Cells were stained with antibodies against cell surface markers (CD3, CD4, CD8, CD25, Biolegend or ThermoFisher) for 20 minutes at 4° C. Cells were washed with SM before continuing with nuclear staining.
# FOXP3 nuclear staining: Cells were fixed and permeabilized with Foxp3 Transcription Factor Staining Buffer Set (ThermoFisher #00-5523) for 20 minutes at room temperature. […] Results are finally analysed with the software FlowJo v.10.7.1.
smiles,measurement,setting,value
CC(C)(C)c1ccc(Oc2ccc(N)cn2)cc1 [6-(4-tert-butylphenoxy)pyridin-3-amine],Percentage downregulation of IL-17,IL-17,38%
same,Percentage inhibition of CD8 T cells (proliferation),activated CD8 T cells,56%
same,IL-10 transcript in splenocytes,IL-10 mRNA,upregulation
same,expansion of Treg cells,Treg cells,112%
